# Test results: PMC2648976 (Biochemistry, 2008)
# “Also recorded” adds a separate entry of the source. Where a SMILES comes first, the peptide text is derived from it. The star is where a group is joined. AMC = Cc1cc(=O)oc2cc(N*)ccc12
# Key:
# WNV NS2B-NS3 protease [1] = biological target: T1, WNV NS2B-NS3 protease (West Nile virus, UniProt Q9Q6P4); assay: NS2B-NS3pro kinetic assay, cleavage of fluorophore-linked; type: biochemical; conditions: for substrate inhibition (reaction mechanism): high substrate concentrations
# T1 sequence (Q9Q6P4 1428-1467 limits assumed, looked up): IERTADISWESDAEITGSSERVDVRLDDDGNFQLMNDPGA
# T1 sequence (Q9Q6P4 1506-1683 limits assumed, looked up): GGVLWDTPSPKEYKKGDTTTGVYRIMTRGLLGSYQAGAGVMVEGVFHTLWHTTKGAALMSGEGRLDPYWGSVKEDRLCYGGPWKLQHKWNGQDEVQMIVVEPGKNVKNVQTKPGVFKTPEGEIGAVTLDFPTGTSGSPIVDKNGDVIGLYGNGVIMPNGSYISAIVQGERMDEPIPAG
# WNV NS2B-NS3 protease [2] = biological target: T1, WNV NS2B-NS3 protease; assay: Inhibition of NS2B-NS3pro by product-analog peptides; type: biochemical; conditions: for Kd (substrate) compared with Ki1 (inhibitor) / difference between Kd2 (substrate) and Ki2 (inhibitor): mixed inhibitor-substrate inhibition model
# [3] = 200 mM Tris pH 9.0, 20% glycerol
compound,measurement,setting,value
"CC(=O)N[C@@H](CC(=O)O)C(=O)N[C@@H](Cc1ccccc1)C(=O)N[C@@H](C)C(=O)N[C@@H](CO)C(=O)NCC(=O)N[C@@H](CCCCN)C(=O)N[C@@H](CCCNC(=N)N)C(=O)Nc1ccc2c(C)cc(=O)oc2c1 [Ac-DFASGKR-AMC, Ac-Asp-Phe-Ala-Ser-Gly-Lys-Arg-AMC] (Ac-DFASGKR-{AMC})",substrate inhibition (reaction mechanism),WNV NS2B-NS3 protease [1]; [3],"substrate inhibition was also observed with the longer substrate (Figure 2b), though it was observed at higher substrate concentrations compared to the tripeptide substrates; also recorded: substrate inhibition model"
same,substrate inhibition (reaction mechanism),"WNV NS2B-NS3 protease [1]; 200 mM Tris pH 9.0, 20% glycerol, listed as Ac-Asp-Phe-Ala-Ser-Gly-Lys-Arg-AMC",demonstrated substrate inhibition
CC(=O)NCC(=O)N[C@@H](CCCNC(=N)N)C(=O)N[C@@H](CCCNC(=N)N)C(N)=O [Ac-GRR-NH2],Kd (substrate) compared with Ki1 (inhibitor),WNV NS2B-NS3 protease [2],similar
same,difference between Kd2 (substrate) and Ki2 (inhibitor),WNV NS2B-NS3 protease [2],~ 2 -fold
same,Ki3 (interaction with substrate-inhibited enzyme-substrate complex),WNV NS2B-NS3 protease [2]; model with and without this interaction similar,large Ki3 which did not play a substantial role in the overall inhibition
"Cc1cc(=O)oc2cc(NC(=O)[C@H](CCCNC(=N)N)NC(=O)[C@H](CCCNC(=N)N)NC(=O)CNC(=O)OC(C)(C)C)ccc12 [Boc-GRR-AMC, Boc-Gly-Arg-Arg-AMC]",NS2B-NS3pro activity against substrate,WNV NS2B-NS3 protease [1]; [3],clearly active
same,relative binding (Kd),WNV NS2B-NS3 protease [1]; Boc-GRR-AMC relative to Ac-DFASGKR-AMC,tighter binding (lower Kd)
same,relative extent of substrate inhibition,WNV NS2B-NS3 protease [1]; at high substrate concentrations,more pronounced with Boc-GRR-AMC than with Boc-GKR-AMC (data not shown) or Ac-DFASGKR-AMC
same,substrate inhibition (reaction mechanism),WNV NS2B-NS3 protease [1]; [3],initial reaction velocities reached a peak and then decreased with increasing substrate concentration; also recorded: substrate inhibition model
same,substrate inhibition (reaction mechanism),"WNV NS2B-NS3 protease [1]; 200 mM Tris pH 9.0, 20% glycerol, listed as Boc-Gly-Arg-Arg-AMC",demonstrated substrate inhibition
Ac-DFASGKR,Kd (substrate) compared with Ki1 (inhibitor),WNV NS2B-NS3 protease [2],very similar
same,difference between Kd2 (substrate) and Ki2 (inhibitor),WNV NS2B-NS3 protease [2],~ 2 -fold
same,mechanism of inhibition,WNV NS2B-NS3 protease [2]; model discrimination analysis with Dynafit,mixed inhibitor-substrate inhibition model; also recorded: mixed non-competitive mechanism (with both competitive and uncompetitive interactions)
